The source of these data is patent US20140296068A1, “PESTICIDAL COMPOSITIONS AND PROCESSES RELATED THERETO” (Dow AgroSciences LLC, priority 2011, published 2014).

Assay [1] deals with Sweetpotato Whitefly-Crawler (Bemisia tabaci) (BEMITA). The assay is described as follows: Insecticidal test for sweetpotato whitefly-crawler in foliar spray assay on cotton plants. It counts as in vivo. As to conditions: 200 ppm foliar spray on cotton plants, graded after 8-9 days, Abbott-corrected % control, read-out: BEMITA % Ctrl @ 200 ppm. The method, then:
Cotton plants grown in 3-inch pots, with 1 small (3-5 cm) true leaf, were used as test substrate. The plants were placed in a room with whitefly adults. Adults were allowed to deposit eggs for 2-3 days. After a 2-3 day egg-laying period, plants were taken from the adult whitefly room. Adults were blown off leaves using a hand-held Devilbiss sprayer (23 psi). Plants with egg infestation (100-300 eggs per plant) were placed in a holding room for 5-6 days at 82° F. and 50% RH for egg hatch and crawler stage to develop. Four cotton plants were used for each treatment. Compounds (2 mg) were dissolved in 1 mL of acetone solvent, forming stock solutions of 2000 ppm. The stock solutions were diluted 10× with 0.025% Tween 20 in H2O to obtain a test solution at 200 ppm. A hand-held Devilbiss sprayer was used for spraying a solution to both sides of cotton leaf until runoff. Reference plants (solvent check) were sprayed with the diluent only. Treated plants were held in a holding room for 8-9 days at approximately 82° F. and 50% RH prior to grading. Evaluation was conducted by counting the number of live nymphs per plant under a microscope. Insecticidal activity was measured by using Abbott's correction formula and presented in “Table 4. Biological Data for GPA (MYZUPE) and sweetpotato whitefly-crawler (BEMITA)” (see column “BEMITA”): […]

Assay [2] has as its system Green Peach Aphid (Myzus persicae) (MYZUPE). The assay is described as follows: Bioassays on Green Peach Aphid (GPA), foliar spray on cabbage seedlings. Format: in vivo. To be noted: 72 h, 200 ppm foliar spray on cabbage seedlings, graded after three days, Abbott-corrected % control, read-out: MYZUPE % Ctrl @ 200 ppm. The method, then: Certain molecules disclosed in this document were tested against GPA using procedures described in the following example. In the reporting of the results, the “Table 3: GPA (MYZUPE) and sweetpotato whitefly-crawler (BEMITA) Rating Table” was used (See Table Section).
Cabbage seedlings grown in 3-inch pots, with 2-3 small (3-5 cm) true leaves, were used as test substrate. The seedlings were infested with 20-50 GPA (wingless adult and nymph stages) one day prior to chemical application. Four pots with individual seedlings were used for each treatment. Test compounds (2 mg) were dissolved in 2 mL of acetone/methanol (1:1) solvent, forming stock solutions of 1000 ppm test compound. The stock solutions were diluted 5× with 0.025% Tween 20 in H2O to obtain the solution at 200 ppm test compound. A hand-held aspirator-type sprayer was used for spraying a solution to both sides of […] leaves until runoff. Reference plants (solvent check) were sprayed with the diluent only containing 20% by volume of acetone/methanol (1:1) solvent. Treated plants were held in a holding room for three days at approximately 25° C. and ambient relative humidity (RH) prior to grading. […] Percent Control was measured by using Abbott's correction formula (W. S. Abbott, “A Method of Computing the Effectiveness of an Insecticide” J. Econ. Entomol. 18 (1925), pp. 265-267) as follows. […]

With `C#CCN(C(=O)CCSC)n1cc(-c2cccnc2)nc1C` [Compound 42], the results for the inhibition at 200 ppm in assay [1] and in assay [2] were 80 to 100% and 0 to 80%, respectively.
